# Data: BigSolDB 2.1
structure (smiles),measurement,setting,value
O=Cc1cc(C=O)cc(C=O)c1,solubility (mole fraction),"in 1,4-dioxane, 288.15 K",0.0135
same,solubility (mole fraction),"in 1,4-dioxane, 293.15 K",0.0164
same,solubility (mole fraction),"in 1,4-dioxane, 298.15 K",0.0206
same,solubility (mole fraction),"in 1,4-dioxane, 303.15 K",0.0249
same,solubility (mole fraction),"in 1,4-dioxane, 308.15 K",0.0288
same,solubility (mole fraction),"in 1,4-dioxane, 313.15 K",0.0336
same,solubility (mole fraction),"in 1,4-dioxane, 318.15 K",0.0372
same,solubility (mole fraction),"in 1,4-dioxane, 323.15 K",0.041
same,solubility (mole fraction),"in acetone, 283.15 K",0.01
same,solubility (mole fraction),"in acetone, 288.15 K",0.0112
same,solubility (mole fraction),"in acetone, 293.15 K",0.0132
same,solubility (mole fraction),"in acetone, 298.15 K",0.0152
same,solubility (mole fraction),"in acetone, 303.15 K",0.0191
same,solubility (mole fraction),"in acetone, 308.15 K",0.023
same,solubility (mole fraction),"in acetone, 313.15 K",0.0265
same,solubility (mole fraction),"in acetone, 318.15 K",0.0307
same,solubility (mole fraction),"in acetone, 323.15 K",0.035
same,solubility (mole fraction),"in acetonitrile, 283.15 K",0.00502
same,solubility (mole fraction),"in acetonitrile, 288.15 K",0.00616
same,solubility (mole fraction),"in acetonitrile, 293.15 K",0.00711
same,solubility (mole fraction),"in acetonitrile, 298.15 K",0.00872
same,solubility (mole fraction),"in acetonitrile, 303.15 K",0.01
same,solubility (mole fraction),"in acetonitrile, 308.15 K",0.0113
same,solubility (mole fraction),"in acetonitrile, 313.15 K",0.0137
same,solubility (mole fraction),"in acetonitrile, 318.15 K",0.0153
same,solubility (mole fraction),"in acetonitrile, 323.15 K",0.0178
same,solubility (mole fraction),"in ethanol, 283.15 K",0.0018
same,solubility (mole fraction),"in ethanol, 288.15 K",0.00208
same,solubility (mole fraction),"in ethanol, 293.15 K",0.00251
same,solubility (mole fraction),"in ethanol, 298.15 K",0.00297
same,solubility (mole fraction),"in ethanol, 303.15 K",0.00365
same,solubility (mole fraction),"in ethanol, 308.15 K",0.00429
same,solubility (mole fraction),"in ethanol, 313.15 K",0.0052
same,solubility (mole fraction),"in ethanol, 318.15 K",0.00614
same,solubility (mole fraction),"in ethanol, 323.15 K",0.00703
same,solubility (mole fraction),"in isobutanol, 283.15 K",0.000219
same,solubility (mole fraction),"in isobutanol, 288.15 K",0.000308
same,solubility (mole fraction),"in isobutanol, 293.15 K",0.000396
same,solubility (mole fraction),"in isobutanol, 298.15 K",0.000488
same,solubility (mole fraction),"in isobutanol, 303.15 K",0.000917
same,solubility (mole fraction),"in isobutanol, 308.15 K",0.00193
same,solubility (mole fraction),"in isobutanol, 313.15 K",0.00277
same,solubility (mole fraction),"in isobutanol, 318.15 K",0.00387
same,solubility (mole fraction),"in isobutanol, 323.15 K",0.00601
same,solubility (mole fraction),"in isopropanol, 283.15 K",0.000462
same,solubility (mole fraction),"in isopropanol, 288.15 K",0.000512
same,solubility (mole fraction),"in isopropanol, 293.15 K",0.000605
same,solubility (mole fraction),"in isopropanol, 298.15 K",0.00069
same,solubility (mole fraction),"in isopropanol, 303.15 K",0.000803
same,solubility (mole fraction),"in isopropanol, 308.15 K",0.00147
same,solubility (mole fraction),"in isopropanol, 313.15 K",0.00216
same,solubility (mole fraction),"in isopropanol, 318.15 K",0.00291
same,solubility (mole fraction),"in isopropanol, 323.15 K",0.00363
same,solubility (mole fraction),"in methanol, 283.15 K",0.00351
same,solubility (mole fraction),"in methanol, 288.15 K",0.00442
same,solubility (mole fraction),"in methanol, 293.15 K",0.00563
same,solubility (mole fraction),"in methanol, 298.15 K",0.00691
same,solubility (mole fraction),"in methanol, 303.15 K",0.00858
same,solubility (mole fraction),"in methanol, 308.15 K",0.0101
same,solubility (mole fraction),"in methanol, 313.15 K",0.0122
same,solubility (mole fraction),"in methanol, 318.15 K",0.0142
same,solubility (mole fraction),"in methanol, 323.15 K",0.0158
same,solubility (mole fraction),"in n-butanol, 283.15 K",0.000718
same,solubility (mole fraction),"in n-butanol, 288.15 K",0.000765
same,solubility (mole fraction),"in n-butanol, 293.15 K",0.000864
same,solubility (mole fraction),"in n-butanol, 298.15 K",0.0013
same,solubility (mole fraction),"in n-butanol, 303.15 K",0.00181
same,solubility (mole fraction),"in n-butanol, 308.15 K",0.00242
same,solubility (mole fraction),"in n-butanol, 313.15 K",0.00288
same,solubility (mole fraction),"in n-butanol, 318.15 K",0.0037
same,solubility (mole fraction),"in n-butanol, 323.15 K",0.00565
same,solubility (mole fraction),"in n-pentanol, 283.15 K",0.00134
same,solubility (mole fraction),"in n-pentanol, 288.15 K",0.00153
same,solubility (mole fraction),"in n-pentanol, 293.15 K",0.00185
same,solubility (mole fraction),"in n-pentanol, 298.15 K",0.00216
same,solubility (mole fraction),"in n-pentanol, 303.15 K",0.00244
same,solubility (mole fraction),"in n-pentanol, 308.15 K",0.00276
same,solubility (mole fraction),"in n-pentanol, 313.15 K",0.00341
same,solubility (mole fraction),"in n-pentanol, 318.15 K",0.0042
same,solubility (mole fraction),"in n-pentanol, 323.15 K",0.00538
same,solubility (mole fraction),"in n-propanol, 283.15 K",0.000909
same,solubility (mole fraction),"in n-propanol, 288.15 K",0.00104
same,solubility (mole fraction),"in n-propanol, 293.15 K",0.00131
same,solubility (mole fraction),"in n-propanol, 298.15 K",0.00154
same,solubility (mole fraction),"in n-propanol, 303.15 K",0.00194
same,solubility (mole fraction),"in n-propanol, 308.15 K",0.00243
same,solubility (mole fraction),"in n-propanol, 313.15 K",0.00296
same,solubility (mole fraction),"in n-propanol, 318.15 K",0.00347
same,solubility (mole fraction),"in n-propanol, 323.15 K",0.00405
same,solubility (mole fraction),"in sec-butanol, 283.15 K",0.000294
same,solubility (mole fraction),"in sec-butanol, 288.15 K",0.000394
same,solubility (mole fraction),"in sec-butanol, 293.15 K",0.000601
same,solubility (mole fraction),"in sec-butanol, 298.15 K",0.000789
same,solubility (mole fraction),"in sec-butanol, 303.15 K",0.00101
same,solubility (mole fraction),"in sec-butanol, 308.15 K",0.00128
same,solubility (mole fraction),"in sec-butanol, 313.15 K",0.00155
same,solubility (mole fraction),"in sec-butanol, 318.15 K",0.00206
same,solubility (mole fraction),"in sec-butanol, 323.15 K",0.00254
same,solubility (mole fraction),"in water, 283.15 K",4.1e-05
same,solubility (mole fraction),"in water, 288.15 K",6.1e-05
same,solubility (mole fraction),"in water, 293.15 K",8.8e-05
same,solubility (mole fraction),"in water, 298.15 K",0.000108
same,solubility (mole fraction),"in water, 303.15 K",0.000132
same,solubility (mole fraction),"in water, 308.15 K",0.000152
same,solubility (mole fraction),"in water, 313.15 K",0.00017
same,solubility (mole fraction),"in water, 318.15 K",0.000185
same,solubility (mole fraction),"in water, 323.15 K",0.000198
